One experiment has as its target T1, hnNOS (Homo sapiens, UniProt P29475).
T1 construct: expressed in transfected cells; host or cells: HEK293
In words: DAN assay, hnNOS expressed in transiently transfected HEK293 cells. It counts as cell-based. Conditions: HEK293 cells transiently transfected with hnNOS. The text has this: (§1) The source of nitric oxide synthase (NOS) enzyme can be generated in several ways including induction of endogenous iNOS using cytokines and/or lipopolysaccharide (LPS) in various cell types known in the art. Alternatively, the gene encoding the enzyme can be cloned and the enzyme can be generated in cells via heterologous expression from a transient or stable expression plasmid with suitable features for protein expression as are known in the art. Enzymatic activity (nitric oxide production) is calcium independent for iNOS, while the constitutive NOS isoforms, nNOS and eNOS, become active with the addition of various cofactors added to cellular media or extract as are well known in the art. Enzymes specified in Table 1 were expressed in HEK293 cells transiently transfected with the indicated NOS isoform.
(§2) A major metabolic pathway for nitric oxide is to nitrate and nitrite, which are stable metabolites within tissue culture, tissue, plasma, and urine (S Moncada, A Higgs, N Eng J Med 329, 2002 (1993)).
(§3) The level of nitrate or nitrite in the specimen can be quantified by any method known in the art which provides adequate sensitivity and reproducibility. A variety of protocols have also been described for detecting and quantifying nitrite and nitrate levels in biological fluids by ion chromatography (e.g., S A Everett et al., J. Chromatogr. 706, 437 (1995); J M Monaghan et al., J. Chromatogr. 770, 143 (1997)), high-performance liquid chromatography (e.g., M Kelm et al., Cardiovasc. Res. 41, 765 (1999)), and capillary electrophoresis (M A Friedberg et al., J. Chromatogr. 781, 491 (1997)). […] Using 2,3-diaminonaphthalene (“DAN”), researchers have developed a rapid, quantitative fluorometric assay that can detect from 10 nM to 10 μM nitrite and is compatible with a multi-well microplate format. […]
(§4) A specimen can be processed prior to determination of nitrate or nitrite as required by the quantification method, or in order to improve the results, or for the convenience of the investigator. […]

The target of the next experiment is T2, heNOS (Homo sapiens, UniProt P29474).
T2 construct: expressed in transfected cells; host or cells: HEK293
T2 sequence (P29474 2-1203 limits assumed): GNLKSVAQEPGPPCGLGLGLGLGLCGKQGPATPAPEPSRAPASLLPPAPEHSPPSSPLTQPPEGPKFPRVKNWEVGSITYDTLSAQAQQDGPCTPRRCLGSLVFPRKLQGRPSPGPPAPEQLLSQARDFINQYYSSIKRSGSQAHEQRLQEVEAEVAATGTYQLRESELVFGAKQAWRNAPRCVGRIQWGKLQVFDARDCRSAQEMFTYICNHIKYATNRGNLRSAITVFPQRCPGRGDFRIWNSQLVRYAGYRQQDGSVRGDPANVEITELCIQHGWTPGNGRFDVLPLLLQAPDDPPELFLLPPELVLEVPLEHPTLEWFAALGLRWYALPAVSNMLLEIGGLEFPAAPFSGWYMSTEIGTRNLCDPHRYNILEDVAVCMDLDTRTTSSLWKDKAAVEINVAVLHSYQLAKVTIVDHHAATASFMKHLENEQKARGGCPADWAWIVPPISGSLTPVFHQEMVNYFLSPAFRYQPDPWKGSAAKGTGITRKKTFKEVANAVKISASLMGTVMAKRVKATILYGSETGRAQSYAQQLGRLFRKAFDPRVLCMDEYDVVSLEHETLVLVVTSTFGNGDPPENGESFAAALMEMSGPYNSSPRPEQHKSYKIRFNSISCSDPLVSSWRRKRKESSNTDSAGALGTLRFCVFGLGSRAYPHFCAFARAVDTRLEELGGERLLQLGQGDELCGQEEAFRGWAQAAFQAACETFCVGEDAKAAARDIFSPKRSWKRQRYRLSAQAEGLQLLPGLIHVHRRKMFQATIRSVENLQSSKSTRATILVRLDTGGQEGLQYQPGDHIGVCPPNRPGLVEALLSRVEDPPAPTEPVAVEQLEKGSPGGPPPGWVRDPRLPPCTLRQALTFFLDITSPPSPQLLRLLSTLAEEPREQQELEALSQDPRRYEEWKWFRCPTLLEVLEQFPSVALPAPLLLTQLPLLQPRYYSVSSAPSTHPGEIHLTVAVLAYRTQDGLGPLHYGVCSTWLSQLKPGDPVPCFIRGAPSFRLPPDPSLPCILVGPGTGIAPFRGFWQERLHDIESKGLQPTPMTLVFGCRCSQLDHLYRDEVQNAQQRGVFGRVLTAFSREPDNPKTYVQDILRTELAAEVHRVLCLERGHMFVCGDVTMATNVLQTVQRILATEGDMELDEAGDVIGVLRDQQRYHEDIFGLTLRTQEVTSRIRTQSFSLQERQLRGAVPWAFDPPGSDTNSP
Description: DAN assay, heNOS expressed in transiently transfected HEK293 cells. It counts as cell-based. Conditions: HEK293 cells transiently transfected with heNOS.
Excerpt: as §1, §2, §3, §4

pEC50: −log10 of the molar value.

T1 sequence (P29475 whole entry): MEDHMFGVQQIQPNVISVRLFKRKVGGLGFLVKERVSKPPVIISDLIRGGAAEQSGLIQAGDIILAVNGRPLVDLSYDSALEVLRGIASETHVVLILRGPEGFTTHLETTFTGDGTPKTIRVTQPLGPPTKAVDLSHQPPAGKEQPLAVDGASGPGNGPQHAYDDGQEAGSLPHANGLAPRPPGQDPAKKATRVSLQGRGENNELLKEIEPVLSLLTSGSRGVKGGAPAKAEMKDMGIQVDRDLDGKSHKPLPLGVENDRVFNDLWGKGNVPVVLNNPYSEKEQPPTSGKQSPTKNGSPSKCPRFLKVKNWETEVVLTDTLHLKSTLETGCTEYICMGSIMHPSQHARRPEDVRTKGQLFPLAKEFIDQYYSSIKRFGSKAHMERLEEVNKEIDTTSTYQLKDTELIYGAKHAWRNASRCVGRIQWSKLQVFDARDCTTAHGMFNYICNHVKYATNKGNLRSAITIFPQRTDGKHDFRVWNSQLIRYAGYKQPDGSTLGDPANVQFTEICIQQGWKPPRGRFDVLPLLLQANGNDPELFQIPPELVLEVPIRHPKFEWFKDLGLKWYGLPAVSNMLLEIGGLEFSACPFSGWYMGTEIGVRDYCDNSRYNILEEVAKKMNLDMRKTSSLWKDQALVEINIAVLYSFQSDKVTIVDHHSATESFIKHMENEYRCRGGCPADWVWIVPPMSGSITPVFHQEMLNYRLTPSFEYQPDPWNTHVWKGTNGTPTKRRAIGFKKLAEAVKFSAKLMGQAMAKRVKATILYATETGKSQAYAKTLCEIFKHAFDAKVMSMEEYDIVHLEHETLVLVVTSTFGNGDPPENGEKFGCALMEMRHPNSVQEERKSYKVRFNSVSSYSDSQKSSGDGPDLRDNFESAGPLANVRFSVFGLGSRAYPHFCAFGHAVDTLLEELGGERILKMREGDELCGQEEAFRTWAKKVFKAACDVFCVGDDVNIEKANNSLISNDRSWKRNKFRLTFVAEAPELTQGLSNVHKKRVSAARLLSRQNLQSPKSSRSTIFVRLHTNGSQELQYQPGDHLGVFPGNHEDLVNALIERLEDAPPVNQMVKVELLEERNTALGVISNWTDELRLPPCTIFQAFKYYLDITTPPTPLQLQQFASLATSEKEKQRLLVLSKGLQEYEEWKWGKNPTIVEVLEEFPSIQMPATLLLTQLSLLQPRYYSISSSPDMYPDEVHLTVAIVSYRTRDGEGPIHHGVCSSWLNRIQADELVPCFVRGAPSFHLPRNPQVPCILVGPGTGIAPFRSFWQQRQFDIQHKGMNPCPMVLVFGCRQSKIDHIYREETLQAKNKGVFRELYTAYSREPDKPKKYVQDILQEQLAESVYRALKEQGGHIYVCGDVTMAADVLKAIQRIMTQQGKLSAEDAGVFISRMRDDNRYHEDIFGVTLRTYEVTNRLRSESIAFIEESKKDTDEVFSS

Turning to `CN(CCCNCc1ccc2c(c1)OCO2)c1nc(-n2ccnc2)ns1` [Example 2, N′-Benzo[1,3]dioxol-5-ylmethyl-N-(3-imidazol-1-yl-[1,2,4]thiadiazol-5-yl)-N-methyl-propane-1,3-diamine], the pEC50 is below 6.00 at hnNOS and below 5.00 on heNOS.

`Cc1cc(C2CCCN2C(=O)NCCc2ccc3c(c2)OCO3)nc(-n2ccnc2)n1` (stereo not drawn) [Example 4, 2-(2-Imidazol-1-yl-6-methyl-pyrimidin-4-yl)-pyrrolidine-1-carboxylic acid (2-benzo[1,3]dioxol-5-yl-ethyl)-amide]: the results for the pEC50 on hnNOS and on heNOS were 6.15 and below 5.00, respectively.

With `Cc1cc(C2CCCN2C(=O)CNCc2ccc3c(c2)OCO3)nc(-n2ccnc2)n1` (stereo not drawn) [Example 5], the pEC50 was below 6.00 at hnNOS and below 5.00 on heNOS.

The values above are taken from patent US7825256B2, “Inducible nitric oxide synthase dimerization inhibitors” (Kalypsys, Inc., priority 2004, dated 2010).
